The target of the assay is T1, mono-acyl glycerol lipase (MAGL) (Homo sapiens, UniProt Q99685).
T1 construct: purchased Cayman Chemical
T1 sequence (Q99685 1-303): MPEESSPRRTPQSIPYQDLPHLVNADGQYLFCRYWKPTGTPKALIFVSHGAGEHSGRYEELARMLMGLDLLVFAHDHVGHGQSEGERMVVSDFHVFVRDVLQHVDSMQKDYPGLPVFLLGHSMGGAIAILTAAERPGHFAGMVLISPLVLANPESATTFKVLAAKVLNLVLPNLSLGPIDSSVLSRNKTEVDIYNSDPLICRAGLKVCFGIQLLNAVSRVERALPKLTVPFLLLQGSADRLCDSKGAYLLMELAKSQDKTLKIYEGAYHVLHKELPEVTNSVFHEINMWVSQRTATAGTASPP
Briefly: In vitro inhibition of mono-acyl glycerol lipase (Monoacylglycerol Lipase Inhibitor Screening Assay Kit, Cayman Chemical; colorimetric). Type of assay: biochemical. Conditions: human recombinant enzyme; 5 min pre-incubation at room temperature (20 °C); substrate 4-nitrophenylacetate (236 µM), 30 min; absorbance at 412 nm; read-out: IC50 against MAGL. As to the method: The ability of the compounds of the present invention to inhibit mono-acyl glycerol lipase (MAGL) was estimated using their IC50 value. MALG inhibition was measured using the Monoacylglycerol Lipase Inhibitor Screening Assay Kit (Cayman Chemical, USA). Briefly, in 96-well plate, samples and human recombinant enzyme were incubated for five minutes at room temperature (20 °C). After that, an ethanolic solution of 4-nitrophenylacetate (236 µM), as colorimetric substrate, was added to the wells and plates were incubated for 30 minutes at room temperature. Finally, absorbance was measured at 412 nm. JZL195 {(4-nitrophenyl)-4-[(3-phenoxyphenyl)methyl]piperazine-1-carboxylate, 5 µM} was used as a positive control. Background obtained was subtracted in each experimental value and the percentage of inhibition was established with the formula (Absorbance 100% Activity - Absorbance of the sample)/Absorbance 100% Activity. Table 1: MAGL inhibition (IC50) for compounds of the invention
Take `CCCC1=CC(=O)C2=C(OC(C)(CCC=C(C)C)C=C2)C1=O` (stereo not drawn) [(C), 2-methyl-2-(4-methylpent-3-enyl)-7-propyl-chromene-5,8-dione]: the IC50 was determined as 6.64 µM.

Turning to `CCCCCC1=CC(=O)C2=C(OC(C)(CCC=C(C)C)C=C2)C1=O` (stereo not drawn) [(A), 2-methyl-2-(4-methylpent-3-enyl)-7-pentyl-chromene-5,8-dione], the IC50 amounted to 4.44 µM.

For the compound `CCCCCC1=CC(=O)C2=C(OC(C)(C)C=C2)C1=O` [(B), 2,2-dimethyl-7-pentyl-chromene-5,8-dione], the IC50 worked out at 4.5 µM.

These data come from patent EP3666765A1, “CHROMENIC PHYTOCANNABINOIDS, THEIR SYNTHESIS AND USE IN TREATMENT OR PREVENTION OF DISEASE” (Emerald Health Biotechnology España,S.L.U., priority 2018, dated 2020).
